Test results reported in ChEMBL document CHEMBL4811304, “Design, synthesis and biological evaluation of dual mTOR/HDAC6 inhibitors in MDA-MB-231 cells” (Bioorg Med Chem Lett, 2021).

What was measured:
[1] = target: T1, Serine/threonine-protein kinase mTOR (Homo sapiens, UniProt P42345); experiment: Inhibition of mTOR (unknown origin) at 0.5 uM relative to control
[2] = target: T1, Serine/threonine-protein kinase mTOR; experiment: Inhibition of mTOR (unknown origin)
[3] = target: T2, Protein deacetylase HDAC6 (Homo sapiens, UniProt Q9UBN7); experiment: Inhibition of HDAC6 (unknown origin)
T2 sequence (Q9UBN7 whole entry): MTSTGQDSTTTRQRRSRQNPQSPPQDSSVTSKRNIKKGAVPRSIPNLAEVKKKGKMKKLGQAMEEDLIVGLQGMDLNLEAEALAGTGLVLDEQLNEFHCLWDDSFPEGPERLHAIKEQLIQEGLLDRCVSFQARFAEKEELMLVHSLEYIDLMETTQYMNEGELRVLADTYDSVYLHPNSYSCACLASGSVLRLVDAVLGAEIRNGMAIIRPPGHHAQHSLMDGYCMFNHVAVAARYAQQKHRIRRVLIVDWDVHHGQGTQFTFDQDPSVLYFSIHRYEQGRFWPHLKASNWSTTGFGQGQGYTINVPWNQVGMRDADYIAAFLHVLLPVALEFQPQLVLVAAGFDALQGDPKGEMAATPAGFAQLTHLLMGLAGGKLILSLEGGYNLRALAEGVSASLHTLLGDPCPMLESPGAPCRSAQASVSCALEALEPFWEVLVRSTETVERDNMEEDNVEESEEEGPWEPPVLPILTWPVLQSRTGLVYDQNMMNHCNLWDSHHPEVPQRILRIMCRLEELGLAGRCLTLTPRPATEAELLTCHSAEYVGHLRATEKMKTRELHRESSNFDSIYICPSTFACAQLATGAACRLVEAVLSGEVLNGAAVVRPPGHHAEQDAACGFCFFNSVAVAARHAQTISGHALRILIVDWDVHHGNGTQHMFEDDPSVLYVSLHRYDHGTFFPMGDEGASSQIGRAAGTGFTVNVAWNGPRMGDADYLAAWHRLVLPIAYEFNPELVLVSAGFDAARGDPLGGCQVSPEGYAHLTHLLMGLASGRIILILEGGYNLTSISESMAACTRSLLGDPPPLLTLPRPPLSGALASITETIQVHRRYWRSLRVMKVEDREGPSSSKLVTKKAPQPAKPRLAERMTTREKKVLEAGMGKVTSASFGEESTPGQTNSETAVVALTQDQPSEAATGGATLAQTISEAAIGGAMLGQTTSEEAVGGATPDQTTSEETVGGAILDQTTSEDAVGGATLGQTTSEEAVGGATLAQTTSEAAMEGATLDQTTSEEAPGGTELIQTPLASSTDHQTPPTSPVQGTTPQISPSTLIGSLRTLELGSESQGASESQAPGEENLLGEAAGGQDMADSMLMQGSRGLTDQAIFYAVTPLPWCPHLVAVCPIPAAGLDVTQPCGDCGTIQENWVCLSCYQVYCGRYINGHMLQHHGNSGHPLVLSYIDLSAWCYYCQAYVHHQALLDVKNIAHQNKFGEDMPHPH

| Compound | inhibition [1] [%] | further results |
| --- | --- | --- |
| COc1cc(OC)c2c(N3CCSCC3)nc(-c3ccc(C(=O)NO)cc3)nc2c1 | 33.8 |  |
| O=C(NO)c1ccc(-c2nc(N3CCOCC3)c3ccc(Cl)cc3n2)cc1 | 75.5 |  |
| O=C(NO)c1ccc(-c2nc(N3CCOCC3)c3ccccc3n2)cc1 | 60.1 |  |
| O=C(NO)c1ccc(-c2nc(N3CCCC3)c3ccccc3n2)cc1 | 11.3 |  |
| O=C(NO)c1ccc(-c2nc(N3CCCC3)c3ccc(Cl)cc3n2)cc1 | 18.3 |  |
| O=C(NO)c1ccc(-c2nc(N3CCSCC3)c3ccccc3n2)cc1 | 44.7 |  |
| O=C(NO)c1ccc(-c2nc(N3CCS(=O)(=O)CC3)c3ccccc3n2)cc1 | 37.4 |  |
| CCNC(=O)Nc1ccc(-c2nc3c(c(N4CCOC[C@@H]4C)n2)CCN(C2COC2)C3)cc1 [RG-7603] |  | IC50 [2]: 3.8 nM |
| O=C(NO)c1ccc(-c2nc(N3CCCCC3)c3ccc(Cl)cc3n2)cc1 | 14.9 |  |
| COc1cc(OC)c2c(N3CCN(C)CC3)nc(-c3ccc(C(=O)NO)cc3)nc2c1 | 67.6 |  |
| C[C@H]1COCCN1c1nc(-c2ccc(C(=O)NO)cc2)nc2cc(Cl)ccc12 | 82.3 |  |
| COc1cc(OC)c2c(N3CCCCC3)nc(-c3ccc(C(=O)NO)cc3)nc2c1 | 11.5 |  |
| Cn1c(=O)n(-c2ccc(C(C)(C)C#N)cc2)c2c3cc(-c4cnc5ccccc5c4)ccc3ncc21 [DACTOLISIB] | 95.4 | IC50 [3]: 2 nM |
| C[C@@H]1COCCN1c1nc(-c2ccc(C(=O)NO)cc2)nc2ccccc12 | 68.5 |  |
| CN1CCN(c2nc(-c3ccc(C(=O)NO)cc3)nc3ccccc23)CC1 | 76.8 |  |
| COc1cc(OC)c2c(N3CCOCC3)nc(-c3ccc(C(=O)NO)cc3)nc2c1 | 48.9 |  |
| C[C@@H]1COCCN1c1nc(-c2ccc(C(=O)NO)cc2)nc2cc(Cl)ccc12 | 78.8 |  |
| O=C(NO)c1ccc(-c2nc(N3CCC(F)(F)CC3)c3ccc(Cl)cc3n2)cc1 | 18.2 |  |
| COc1cc(OC)c2c(N3CCOC[C@@H]3C)nc(-c3ccc(C(=O)NO)cc3)nc2c1 | 55.4 |  |
| COc1cc(OC)c2c(N3CCC(F)(F)CC3)nc(-c3ccc(C(=O)NO)cc3)nc2c1 | 10.6 |  |
| COc1cc(OC)c2c(N3CCCC3)nc(-c3ccc(C(=O)NO)cc3)nc2c1 | 9.7 |  |
| COc1cc(OC)c2c(N3CCOC[C@H]3C)nc(-c3ccc(C(=O)NO)cc3)nc2c1 | 57.2 |  |
| COc1cc(OC)c2c(N3CCS(=O)(=O)CC3)nc(-c3ccc(C(=O)NO)cc3)nc2c1 | 34.8 |  |
| O=C(NO)c1ccc(-c2nc(N3CCCCC3)c3ccccc3n2)cc1 | 23.6 |  |
| O=C(NO)c1ccc(-c2nc(N3CCC(F)(F)CC3)c3ccccc3n2)cc1 | 18.4 |  |
| O=C(NO)c1ccc(-c2nc(N3CCS(=O)(=O)CC3)c3ccc(Cl)cc3n2)cc1 | 39.7 |  |
| O=C(NO)c1ccc(-c2nc(N3CCSCC3)c3ccc(Cl)cc3n2)cc1 | 44.9 |  |
| C[C@H]1COCCN1c1nc(-c2ccc(C(=O)NO)cc2)nc2ccccc12 | 67.3 |  |
